Results: patent EP4417607A1, “HETEROCYCLIC COMPOUND AS SOS1 INHIBITOR AND USES THEREOF” (Nanjing Zaiming Pharmaceutical Co., Ltd., priority 2021, dated 2023)

Legend:
[1] = test system: p-ERK pathway in H358 cells; test: p-ERK pathway inhibition in H358 cells (Advanced phospho-ERK (Thr202/Tyr204) cellular kit, HTRF); assay type: cell-based; details: Homo sapiens, NCI-H358, 1 h compound incubation
Procedure, shortened: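 Serum-starved H358 cells (50000/well, overnight) treated with compound for 1 h at 37 °C, then lysed; phospho-ERK (Thr202/Tyr204) read by HTRF (665/620 nm ratio). Cell-free wells set 100% inhibition, untreated cells 0%; IC50 fitted from 8 concentrations by four-parameter curve.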

CYP2D6 = target: T1, CYP2D6 (Homo sapiens, UniProt P10635); test: CYP2D6 enzymatic activity inhibition in human liver microsomes; assay type: in vitro ADME; details: IC50, human liver microsome, substrate dextromethorphan
T1 construct: Human liver microsome (Corning 452117); tissue Corning 452117; host or cells: human liver microsomes
Protocol: (§1) The inhibition of CYP2C9, CYP2D6, and CYP3A4 enzymatic activity by the compound of the present invention was determined using the following method. • I. Experimental materials and instruments • 1. Human liver microsome (Corning 452117) • 2. Na2HPO4 (Sigma SLBZ6180) • 3. KH2PO4 (Sigma SLBT6559) • 4. NADPH (Solarbio 705Y021) • […] • 6. Positive substrates diclofenac (Sigma SLBV3438), dextromethorphan (TRC 3-EDO-175-1), and midazolam (Cerilliant FE01161704) • 7. Positive inhibitors sulfaphenazole (D. Ehrenstorfer GmbH 109012), quinidine (TCI WEODL-RE), and ketoconazole (Sigma 100M1091V) • 7. AB Sciex Triple Quad 5500 liquid chromatography-mass spectrometry system • II. Procedures • 1. Preparation of 100 mM phosphate-buffered saline (PBS): 7.098 g Na2HPO4 was weighed. 500 mL pure water was added. The mixture was dissolved by sonication to give solution A. 3.400 g KH2PO4 was weighed. 250 mL pure water was added. The mixture was dissolved by sonication to give solution B. The solution A was placed in a stirrer, and the solution B was slowly added until the pH reached 7.4 to prepare the 100 mM PBS buffer. • 2. A 10 mM NADPH solution was prepared with a 100 mM PBS buffer. A 10 mM stock solution of the compound of the present invention was diluted with DMSO to give a compound working solution at a concentration of 200× (6000, 2000, 600, 200, 60, 20, and 0 µM). The positive inhibitor stock solution was diluted with DMSO to give a positive inhibitor working solution at a concentration of 200× (sulfaphenazole, 1000, 300, 100, 30, 10, 3, and 0 µM; quinidine/ketoconazole, 100, 30, 10, 3, 1, 0.3, and 0 µM). Substrate working solutions (120 µM diclofenac, 400 µM dextromethorphan, and 200 µM midazolam) at a concentration of 200× were prepared with water, acetonitrile, or acetonitrile/methanol. • 3. […]
(§2) The values were calculated by Excel XLfit 5.3.1.3 to obtain IC50 values for the compounds of the present invention against CYP2C9, CYP2D6, and CYP3A4 as shown in Table 8. […]

CYP3A4 = target: T2, CYP3A4 (Homo sapiens, UniProt P08684); test: CYP3A4 enzymatic activity inhibition in human liver microsomes; assay type: in vitro ADME; details: IC50, human liver microsome, substrate midazolam
T2 construct: Human liver microsome (Corning 452117); tissue Corning 452117; host or cells: human liver microsomes
Protocol: as §1, §2

T1 sequence (P10635 whole entry): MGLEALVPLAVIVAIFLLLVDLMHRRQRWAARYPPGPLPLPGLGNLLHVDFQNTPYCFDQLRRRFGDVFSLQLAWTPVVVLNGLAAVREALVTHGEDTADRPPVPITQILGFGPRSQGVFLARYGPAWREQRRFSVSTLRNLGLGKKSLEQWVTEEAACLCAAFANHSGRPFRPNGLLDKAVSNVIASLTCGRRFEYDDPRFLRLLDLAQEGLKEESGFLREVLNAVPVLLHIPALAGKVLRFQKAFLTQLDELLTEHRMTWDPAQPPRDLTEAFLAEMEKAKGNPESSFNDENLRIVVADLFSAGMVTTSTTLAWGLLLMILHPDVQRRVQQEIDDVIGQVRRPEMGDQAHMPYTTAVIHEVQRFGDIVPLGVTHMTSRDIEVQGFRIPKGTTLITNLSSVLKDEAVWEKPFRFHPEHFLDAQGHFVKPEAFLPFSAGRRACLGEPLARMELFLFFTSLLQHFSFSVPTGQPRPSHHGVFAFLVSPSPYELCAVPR
T2 sequence (P08684 whole entry): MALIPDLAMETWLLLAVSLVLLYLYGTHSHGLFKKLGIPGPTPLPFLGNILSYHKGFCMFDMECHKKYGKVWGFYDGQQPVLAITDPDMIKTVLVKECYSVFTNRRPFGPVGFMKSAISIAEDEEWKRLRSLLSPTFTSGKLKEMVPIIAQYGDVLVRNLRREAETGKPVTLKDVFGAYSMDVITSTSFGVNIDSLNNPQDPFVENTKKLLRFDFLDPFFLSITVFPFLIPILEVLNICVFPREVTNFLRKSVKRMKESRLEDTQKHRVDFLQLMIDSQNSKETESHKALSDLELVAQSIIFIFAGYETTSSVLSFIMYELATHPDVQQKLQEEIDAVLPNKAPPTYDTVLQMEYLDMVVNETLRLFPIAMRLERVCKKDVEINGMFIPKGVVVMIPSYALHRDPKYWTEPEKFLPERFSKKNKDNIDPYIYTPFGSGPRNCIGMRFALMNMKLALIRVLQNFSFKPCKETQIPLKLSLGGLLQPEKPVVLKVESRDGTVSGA

SMILES	IC50 [1] [nM]	IC50 (CYP2D6) [nM]	IC50 (CYP3A4) [nM]
COc1c(=O)n(N2CCOCC2)cc2c(N[C@H](C)c3cccc(C(F)F)c3F)nc(C)nc12 [Example 20, (R)-4-((1-(3-(difluoromethyl)-2-fluorophenyl)ethyl)amino)-8-methoxy-2-methyl-6-morpholinepyrido[4,3-d]pyrimidine-7(6H)-one]	41.9		
[2H]C([2H])([2H])Oc1c(=O)n(C2(CF)CC2)cc2c(N[C@H](C)c3cccc(C(F)F)c3F)nc(C)nc12 [Example 23, (R)-4-((1-(3-(difluoromethyl)-2-fluorophenyl)ethyl)amino)-6-(1-(fluoromethyl)cyclopropyl)-8-(methoxy-d3)-2-methylpyrido[4,3-d]pyrimidine-7(6H)-one]	44.9	> 30000	> 30000
Cc1nc(N[C@H](C)c2cccc(C(F)F)c2F)c2cn(C3(CF)CC3)c(=O)c(N3CCOCC3)c2n1 [Example 34, (R)-4-((1-(3-(difluoromethyl)-2-fluorophenyl)ethyl)amino)-6-(1-(fluoromethyl)cyclopropyl)-2-methyl-8-morpholinylpyrido[4,3-d]pyrimidine-7(6H)-one]	9.18		
Cc1nc(N[C@H](C)c2cccc(C(F)F)c2F)c2cn(C3(CF)CC3)c(=O)c(N3CCOC[C@@H]3C)c2n1 [Example 40, 4-(((R)-1-(3-(difluoromethyl)-2-fluorophenyl)ethyl)amino)-6-(1-(fluoromethyl)cyclopropyl)-2-methyl-8-((S)-3-methylmorpholine)pyrido[4,3-d]pyrimidine-7(6H)-one]	19.9	> 30000	> 30000
[2H][C@](C)(Nc1nc(C)nc2c(N3CCOCC3)c(=O)n(C3(CF)CC3)cc12)c1cccc(C(F)F)c1F [Example 55, (R)-4-((1-(3-(difluoromethyl)-2-fluorophenyl)ethyl-1-d)amino)-6-(1-(fluoromethyl)cyclopropyl)-2-methyl-8-morpholinylpyrido[4,3-d]pyrimidine-7(6H)-one]	30.3	> 30000	> 30000
